pIC50: −log10 of the molar value. In brackets after ≈: the same amount, converted by molar mass. Where two headings read alike, the source gives them in different places.
Tests used:
MRC-5 cells = test: MRC-5 cytotoxicity; type: cell-based; details: S1 Data
[1] = test system: PMM (Primary Mouse Macrophages); test: Cytotoxicity on primary peritoneal mouse macrophages; type: cell-based; details: read-out: PMM IC50
Procedure: (§1) Leishmania infantum MHOM/MA(BE)/67/ITMAP263 amastigotes were collected from the spleen of infected donor Golden hamsters. Primary peritoneal mouse macrophages (PMM) were used as host cells for in vitro assays. PMM were collected from Swiss mice after 2 days of peritoneal stimulation with a 2% suspension of potato starch and maintained in RPMI-1640 medium supplemented with 200 mM L-glutamine, antibiotics and 5% FCS at 37°C and 5% CO2. Promastigotes of L. infantum chagasi (luciferase) (MHOM/BR/2005/NLC) obtained as described in Reimão et al.,[27] were grown in M199 medium supplemented with 10% FCS, 0.25% hemin, 32 μg/ml hygromycin and 2% sterile human urine at 25°C and 5% CO2.
(§2) Stock solutions of the compounds at 20 mM were prepared in 100% DMSO. Next, the compounds were serially pre-diluted in DMSO followed by a further dilution in demineralized water to assure a final in-test DMSO concentration below 1%. The compounds were tested at 4-fold dilutions starting at 64 μM.

[2] = Experimental distribution coefficient (eLogD); type: physicochemical
Procedure: To determine the lipophilicity of the compounds, a methodology based on the retention time of molecules in reverse stationary phase (Ascentis RP-Amide HPLC column) was used. The chromatogram was obtained using LC-MS/MS. Test compounds were prepared at 1.0 μg/mL by adding the stock solution at (1:1) mobile phases A:B + internal standard at 200nM (A: 5% methanol in 10mM ammonium acetate pH 7.4, B: 100% methanol), DMSO concentration must be lower than 2%. […] The retention time (in minutes) of each of the eight standards was plotted against their LogD values. The resulting equation for the calibration curve (y = mx + b) was used to calculate the LogD values for the test compounds.

[3] = Mouse liver microsomal stability; type: in vitro ADME; details: for microsomal CLint at 0.5 μM: CD1, mouse, liver microsomes
Procedure: The metabolic stability of the compounds was evaluated in human (pool of 200 donors, XenoTech) and mouse liver microsomes (CD1 mouse, GIBCO). Test compounds were prepared at a concentration of 0.5 μM and incubated with 0.25 mg/mL liver microsomes at pH 7.4 and 37°C. The reaction was started by addition of NADPH at […]. Samples were taken at 0, 5, 10, 15, 20 and 30 minutes. The reaction was stopped by the addition of acetonitrile:methanol (1:1) containing an internal standard (tolbutamide at 50 nM). Compounds were quantified by liquid chromatography triple quadrupole mass spectrometry (LC-MS/MS). Peak area ratios (analyte/internal standard) were converted to % remaining using the area ratio at time 0 as 100%. Half-life (t1/2 = ln(2)/k) in minutes and intrinsic clearance (Clint = k x 1000/(0.25)) in μL/min/mg were calculated using a non-linear regression from % remaining versus incubation time. From this plot, the slope (k) was determined. The analysis conditions were: analytical column (Gemini C18, […], Phenomenex), electrospray ionization source (ESI) in positive and negative mode, mobile phase A (water + 0.1% formic acid) and B (acetonitrile + 0.1% formic acid), flow rate of 0.7 mL/min.

[4] = test system: Leishmania infantum MHOM/MA(BE)/67/ITMAP263 amastigotes; test: L. infantum intracellular amastigote assay in PMM; type: cell-based; details: for SI: selectivity index (CC50 / IC50): CC50 / L. infantum IC50; for pIC50: read-out: L. infantum IC50
Procedure: as §1, §2
For the antileishmania in vitro assays, 3×10^4 PMM/well were seeded in 96-well plates. After 24h, 5×10^5 amastigotes/well were added and incubated for 2h at 37°C. Next, the compounds in 4-fold serial dilutions were added and the plates were further incubated for 5 days (37°C, 5% CO2). Parasite burdens were assessed using an inverted microscope after Giemsa staining. The results were expressed as percent reduction in parasite burdens compared to negative control wells (100% growth) and IC50 values were determined. Values represent the geometric mean of at least two independent experiments. Miltefosine was used as the positive control in all plates.

[5] = Parallel artificial membrane permeability assay (PAMPA); type: in vitro ADME; details: S1 Data; for Papp at 5 h, 10 μM: PAMPA, read-out: PAMPA Pe
Procedure: To determine the passive permeability of the compounds, a 96-well plate containing membranes pre-coated with lipids (Corning Gentest # 353015) was used. The solutions of the compounds were prepared by diluting the stock solutions (10mM) in phosphate buffered saline (PBS) pH 6.5 at a final concentration of 10μM. The solutions diluted in PBS pH 6.5 were then added to the donor portion of the plate (300 μl/well), while PBS pH 7.4 (200 μl/well) was added to the acceptor portion. The two portions of the plate were then coupled, and the system was incubated for 5 h at 37°C. At the end of the incubation, samples were collected from the donor and acceptor plates, and then added to plates containing quench solution (10% water and 90% methanol: acetonitrile (50:50) + 50 nM tolbutamide). The final concentrations of compounds in the donor, acceptor, and initial solution (T0) wells were analyzed using LC-MS/MS. The results were used to calculate an effective permeability (Pe) value. The PAMPA assay was performed in triplicate (n = 3).

MRC-5 cytotoxicity = type: cell-based; details: human, MRC-5 cells; S1 Data
Kinetic solubility = type: physicochemical; details: for solubility kinetic at 24 h: PBS buffer pH 7.4, aqueous buffer, kinetic from dmso stock, PBS pH 7.4, read-out: KS PBS - pH7.4
Procedure: The precipitates on the incubation plate were removed by centrifugation (15 min, 3000 rpm, r.t.); the compound concentration in the resulting supernatant was determined by LC-MS/MS. Results were calculated as the concentration of remaining compound in solution after incubation.

[6] = intracellular amastigotes in PMM, 5 days
[7] = Leishmania infantum, 120 h, intracellular amastigotes in PMM, 5 days
[8] = reverse stationary phase HPLC column (Ascentis RP-Amide), pH 7.4, S1 Data
[9] = reverse-phase HPLC retention (Ascentis RP-Amide column), experimental, pH 7.4
[10] = pH 7.4, S1 Data, read-out: MLM CLint

Molecule | MLM CLint ([3]; S1 Data) [µL/min/mg] | SI: selectivity index (CC50 / IC50) [4] | CC50 (MRC-5 cytotoxicity) [µM] | pIC50 ([1]; Mus musculus, Macrophage) | pIC50 [4, 7] | pIC50 ([4]; Leishmania infantum, S1 Data) | Papp at 5 h, 10 μM [5] [×10⁻⁶ cm/s] | chromatographic logD [2, 8] | microsomal CLint at 0.5 μM [3, 10] [µL/min/mg] | other results
CCCn1c(NC(=O)Cc2ccc(F)cc2)nc(c13)cc(C(=O)N4CCOCC4)cc3 [Compound 14] | <23 | 1 | – | – | – | – | – | – | – | CC50 (MRC-5 cells): > 64 µM; pIC50 ([1]; S1 Data): < 4.19; eLogD ([2]; S1 Data): 3.05; MLM CLint ([3]; mouse liver microsome intrinsic clearance): 23 µL/min/mg; pIC50 ([4]; S1 Data): 4.24; pIC50 [4, 6]: 4.24; PAMPA Pe [5]: 7.26 10-6 cm/s
COCCn1c(NC(=O)c2ccnn2C)nc2ccc(C#N)cc21 [Compound 50, O=C(c1ccnn1C)Nc2nc(ccc(C#N)c3)c3n2CCOC] | 98 | 1 | > 64 | < 4.19 | 4.33 | 4.33 | 14.7 | – | – | solubility kinetic at 24 h (Kinetic solubility): 5.98 µg/mL (≈ 18.4 µM); KS PBS - pH 2 (Kinetic solubility): 7.77 ug/mL
Cn1nccc1C(=O)Nc1nc2ccc(C#N)cc2n1C1CCOCC1 [Compound 32, O=C(c1ccnn1C)Nc2nc(ccc(C#N)c3)c3n2C4CCOCC4] | – | 1 | > 64 | < 4.19 | – | < 4.19 | 11 | 2.32 | < 23 | chromatographic logD [2, 9]: 2.3; microsomal CLint at 0.5 μM ([3]; pH 7.4, mouse liver microsome intrinsic clearance, read-out: MLM Clint): 23 µL/min/mg
CCn1c(NC(=O)Cc2ccc(F)cc2)nc2ccc(F)cc21 [Compound 16, Fc1cc2c(nc(NC(=O)Cc3ccc(F)cc3)n2CC)cc1] | – | – | > 64 | < 4.19 | 5.36 | 5.36 | 19.4 | 3.59 | 538 | –
CC(C)(C)Cn1c(NC(=O)c2ccccn2)nc2ccc(C#N)cc21 [Compound 40, CC(Cn1c(NC(=O)c2ccccn2)nc(c13)ccc(C#N)c3)(C)C] | – | 1 | 60.9 | 4.80 | 4.82 | 4.83 | 3.62 | 3.93 | 1030 | chromatographic logD [2, 9]: 4
Cn1nccc1C(=O)Nc1nc2cncnc2n1CC(F)(F)F [Compound 55, O=C(c1ccnn1C)Nc2nc(cncn3)c3n2CC(F)(F)F] | 24 | 2 | 24.8 | 5.10 | 5.40 | 5.39 | 13.6 | – | – | solubility kinetic at 24 h (Kinetic solubility): 65 µg/mL (≈ 200 µM); KS PBS - pH 2 (Kinetic solubility): 64.44 ug/mL
O=C(Cc1ccc(F)cc1)Nc1nc2cc(F)ccc2n1CCCN1CCOCC1 [Compound 27, Fc1cc(nc(NC(=O)Cc2ccc(F)cc2)n3CCCN4CCOCC4)c3cc1] | – | – | 60.9 | 4.34 | 4.62 | 4.63 | 4.74 | 3.42 | 335 | –
CC(C)(C)Cn1c(NC(=O)c2cccnc2)nc2ccc(C#N)cc21 [Compound 41, O=C(Nc1n(CC(C)(C)C)c(c2n1)cc(C#N)cc2)c3cccnc3] | 87 | 2 | > 64 | 4.80 | 5.07 | 5.07 | 18 | 3.9 | – | –
CCCn1c(NC(=O)Cc2ccc(F)cc2)nc(c13)cc(C(=O)O)cc3 [Compound 10] | – | 1 | – | – | – | – | – | – | – | CC50 (MRC-5 cells): > 64 µM; pIC50 ([1]; S1 Data): < 4.19; eLogD ([2]; S1 Data): 1.83; pIC50 ([4]; S1 Data): < 4.19; L. infantum IC50 [4, 6]: inactive; PAMPA Pe [5]: 6.27 10-6 cm/s
Cn1ccc(C(=O)Nc2nc3ccc(C#N)cc3n2CC(F)(F)F)n1 [Compound 35, O=C(c1nn(C)cc1)Nc2nc(ccc(C#N)c3)c3n2CC(F)(F)F] | 73 | 1 | 58.2 | 4.49 | 4.59 | 4.59 | 13.9 | 4.15 | – | eLogD ([2]; experimental, pH 7.4): 4.2
O=C(Cc1ccc(F)cc1)Nc1nc2cc(F)ccc2n1C1CCOCC1 [Compound 28, Fc1cc(nc(NC(=O)Cc2ccc(F)cc2)n3C4CCOCC4)c3cc1] | – | – | > 64 | < 4.19 | 4.89 | 4.90 | 19.6 | 3.32 | 133 | –
Cn1nccc1C(=O)Nc1nc2cccnc2n1CC(C)(C)C [Compound 54, CC(Cn1c(NC(=O)c2n(C)ncc2)nc(c13)cccn3)(C)C] | 222 | 4 | 43.7 | 4.49 | 5.11 | 5.11 | 11.7 | 4.04 | – | chromatographic logD [2, 9]: 4

Reference: PMC7932521, “2-aminobenzimidazoles for leishmaniasis: From initial hit discovery to in vivo profiling” (PLoS Neglected Tropical Diseases, 2021)
